For the test, the target named is T1, recombinant N-terminal GST-tagged human Rho kinase 2 (ROCK2, amino acids 1-552) (Homo sapiens, UniProt O75116).
T1 construct: ROCK2, amino acids 1-552; purchased Invitrogen Inc. PV3759
As to the kind of experiment: In vitro Rho kinase assay (luciferase-based ATP consumption), ROCK2. It counts as biochemical. The conditions noted are these: recombinant GST-tagged human ROCK2, luciferase-based ATP consumption; read-out: ROCK2 IC50. The procedure:
In Vitro Rho Kinase Assay
Rho kinase biochemical assays described below depend on firefly luciferase-based, indirect measurement of total ATP consumption by the kinase following incubation with substrate and ATP. 25 μl of Rho kinase assay buffer (20 mM Tris-HCL [pH 7.5], 1 mM MgCl2, 0.4 mM CaCl2, 0.15 mM EGTA, 0.1 mg/ml bovine serum albumin) containing 0.82 μg/ml of recombinant N-terminal GST-tagged human Rho kinase 1 (ROCK1, amino acids 1-535, Invitrogen Inc., cat. #PV-3691) or recombinant N-terminal GST-tagged human Rho kinase 2 (ROCK2, amino acids 1-552, Invitrogen Inc., cat #PV3759), 100 μg/ml S6 peptide substrate (related to amino acids 218-249 of the human 40S ribosomal protein S6, and suitable for ROCK1 or ROCK2, e.g. Upstate/Millipore Inc., cat #12-420), and 3 µM ATP are dispensed to wells of a 384 multi-well opaque plate. The plate is centrifuged for 30 seconds at approximately 200×g. 240 nl of test compound in DMSO is dispensed to each well by passive pin transfer. The lag phase of this in vitro kinase reaction permits addition of compounds soon after the reaction initiates. The reaction is allowed to incubate at 30° C. for 2 hours. The assay plates are sealed and maintained in a humidified environment. After 2 hours, 25 μl of easylite protein kinase assay reagent (Perkin-Elmer, Inc.) is dispensed. After an additional 10 minute incubation at room temperature (about 22° C.), luminescence activity is measured on a Molecular Devices Analyst multi-mode plate reader or other suitable plate reader. Kinase inhibition results in less ATP consumption, and therefore increased luminescence signal. Negative control activity is measured with DMSO lacking any test compound. The positive control is 2-methyl-1-(4-methylisoquinolin-5-ylsulfonyl)perhydro-1,4-diazepine hydrochloride (aka H-1152P, HCl salt). Efficacy is measured as a percentage of positive control activity. […] In some cases, kinase reactions and compound testing are performed in 1536 multi-well plates under similar conditions, with assay volumes appropriately scaled. The designation NT means the cited example was not tested.

Molecules are shown by their SMILES.

T1 sequence (O75116 1-552): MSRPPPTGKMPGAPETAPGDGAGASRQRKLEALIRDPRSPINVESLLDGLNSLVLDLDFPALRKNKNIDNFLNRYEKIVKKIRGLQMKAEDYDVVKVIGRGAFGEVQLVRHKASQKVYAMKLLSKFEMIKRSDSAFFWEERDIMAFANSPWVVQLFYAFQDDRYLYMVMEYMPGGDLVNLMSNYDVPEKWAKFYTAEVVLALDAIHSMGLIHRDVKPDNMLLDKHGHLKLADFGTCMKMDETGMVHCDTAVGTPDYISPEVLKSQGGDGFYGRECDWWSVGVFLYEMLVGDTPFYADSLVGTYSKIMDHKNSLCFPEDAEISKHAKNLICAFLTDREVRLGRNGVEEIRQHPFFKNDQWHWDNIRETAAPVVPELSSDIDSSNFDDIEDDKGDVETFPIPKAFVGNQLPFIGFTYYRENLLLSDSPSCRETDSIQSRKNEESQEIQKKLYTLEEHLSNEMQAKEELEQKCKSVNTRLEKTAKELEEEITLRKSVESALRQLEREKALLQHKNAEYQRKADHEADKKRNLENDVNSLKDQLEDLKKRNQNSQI

The term IC50 denotes the concentration that gives 50% inhibition. On to `Cc1c(-c2ccnc(N)n2)sc2ccc(C(=O)N3CCN(CC4CCCCC4)CC3)cc12` [Example 527, Cc1c(sc2ccc(cc12)C(═O)N3CCN(CC3)CC4CCCCC4)-c5ccnc(N)n5], for which the IC50 was greater than 5 µM.
The figure for `CCN(C(=O)c1ccc2sc(-c3ccnc(N)n3)c(C)c2c1)C(Cc1ccccc1)c1ccco1` (stereo not shown) [Example 560, CCN(C(Cc1ccccc1)c2ccco2)C(═O)c3ccc4sc(c(C)c4c3)-c5ccnc(N)n5] is less than 5 µM; for `CCOC(=O)N1CCC(NC(=O)c2ccc3sc(-c4ccnc(N)n4)c(C)c3c2)CC1` [Example 442, CCOC(═O)N1CCC(CC1)NC(═O)c2ccc3sc(c(C)c3c2)-c4ccnc(N)n4] it is less than 5 µM; for `Cc1ccccc1CNC(=O)c1ccc2sc(-c3ccnc(N)n3)c(C)c2c1` [Example 379, Cc1ccccc1CNC(═O)c2ccc3sc(c(C)c3c2)-c4ccnc(N)n4] it is less than 5 µM.
The figure for `Cc1c(-c2ccnc(N)n2)sc2ccc(C(=O)N3CCN(Cc4ccc5c(c4)OCO5)CC3)cc12` [Example 563, Cc1c(sc2ccc(cc12)C(═O)N3CCN(CC3)Cc4ccc5OCOc5c4)-c6ccnc(N)n6] is less than 5 µM; for `Cc1c(-c2ccnc(N)n2)sc2ccc(C(=O)NCCN3CCCC3)cc12` [Example 372, Cc1c(sc2ccc(cc12)C(═O)NCCN3CCCC3)-c4ccnc(N)n4] it is less than 5 µM.
For `Cc1c(-c2ccnc(N)n2)sc2ccc(C(=O)NCc3ccc(C(F)(F)F)cc3)cc12` [Example 444, Cc1c(sc2ccc(cc12)C(═O)NCc3ccc(cc3)C(F)(F)F)-c4ccnc(N)n4], the 50% inhibitory concentration (IC50) was greater than 5 µM.
The figure for `Cc1c(-c2ccnc(N)n2)sc2ccc(C(=O)NCCc3c[nH]c4ccccc34)cc12` [Example 435, Cc1c(sc2ccc(cc12)C(═O)NCCc3c[nH]c4ccccc34)-c5ccnc(N)n5] is less than 5 µM; for `Cc1c(-c2ccnc(N)n2)sc2ccc(C(=O)N(C)Cc3cccc4ccccc34)cc12` [Example 553, CN(Cc1cccc2ccccc12)C(═O)c3ccc4sc(c(C)c4c3)-c5ccnc(N)n5] it is greater than 5 µM.
Under `Cc1c(-c2ccnc(N)n2)sc2ccc(C(=O)NCc3cccc(Cl)c3)cc12` [Example 408, Cc1c(sc2ccc(cc12)C(═O)NCc3cccc(Cl)c3)-c4ccnc(N)n4] stands less than 5 µM; under `Cc1c(-c2ccnc(N)n2)sc2ccc(C(=O)NCCc3ccc(S(N)(=O)=O)cc3)cc12` [Example 454, Cc1c(sc2ccc(cc12)C(═O)NCCc3ccc(cc3)S(N)(═O)═O)-c4ccnc(N)n4], less than 5 µM.
On to `Cc1c(-c2ccnc(N)n2)sc2ccc(C(=O)N3CCC(N(C)C(=O)OC(C)(C)C)C3)cc12` (stereo not shown) [Example 549, CN(C1CCN(C1)C(═O)c2ccc3sc(c(C)c3c2)-c4ccnc(N)n4)C(═O)OC(C)(C)C], for which the IC50 is greater than 5 µM.
Under `Cc1c(-c2ccnc(N)n2)sc2ccc(C(=O)N3CCN(c4ccc(Cl)cc4)CC3)cc12` [Example 545, Cc1c(sc2ccc(cc12)C(═O)N3CCN(CC3)c4ccc(Cl)cc4)-c5ccnc(N)n5] stands greater than 5 µM.
On to `COc1ccc(OC)c(CCNC(=O)c2ccc3sc(-c4ccnc(N)n4)c(C)c3c2)c1` [Example 449, COc1ccc(OC)c(CCNC(═O)c2ccc3sc(c(C)c3c2)-c4ccnc(N)n4)c1], for which the concentration for half-maximal inhibition (IC50) is less than 5 µM.
Under `Cc1c(-c2ccnc(N)n2)sc2ccc(C(=O)N(C)CC(O)c3ccccc3)cc12` (stereo not shown) [Example 507, CN(CC(O)c1ccccc1)C(═O)c2ccc3sc(c(C)c3c2)-c4ccnc(N)n4] stands less than 5 µM; under `Cc1c(-c2ccnc(N)n2)sc2ccc(C(=O)NC(C)CCCC(C)C)cc12` (stereo not shown) [Example 388, CC(C)CCCC(C)NC(═O)c1ccc2sc(c(C)c2c1)-c3ccnc(N)n3], greater than 5 µM.
The figure for `Cc1c(-c2ccnc(N)n2)sc2ccc(C(=O)NC3CC3)cc12` [Example 333, Cc1c(sc2ccc(cc12)C(═O)NC3CC3)-c4ccnc(N)n4] is less than 5 µM; for `COc1ccc(NC(=O)c2ccc3sc(-c4ccnc(N)n4)c(C)c3c2)cc1OC` [Example 426, COc1ccc(NC(═O)c2ccc3sc(c(C)c3c2)-c4ccnc(N)n4)cc1OC] it is less than 5 µM; for `Cc1c(-c2ccnc(N)n2)sc2ccc(C(=O)N3CCOCC3)cc12` [Example 466, Cc1c(sc2ccc(cc12)C(═O)N3CCOCC3)-c4ccnc(N)n4] it is less than 5 µM.
The figure for `Cc1c(-c2ccnc(N)n2)sc2ccc(C(=O)NN3CCN(C)CC3)cc12` [Example 373, CN1CCN(CC1)NC(═O)c2ccc3sc(c(C)c3c2)-c4ccnc(N)n4] is less than 5 µM; for `Cc1c(-c2ccnc(N)n2)sc2ccc(C(=O)N3CCN(CCN4CCOCC4)CC3)cc12` [Example 548, Cc1c(sc2ccc(cc12)C(═O)N3CCN(CCN4CCOCC4)CC3)-c5ccnc(N)n5] it is greater than 5 µM; for `Cc1c(-c2ccnc(N)n2)sc2ccc(C(=O)NCc3cccc(F)c3)cc12` [Example 382, Cc1c(sc2ccc(cc12)C(═O)NCc3cccc(F)c3)-c4ccnc(N)n4] it is less than 5 µM.
Regarding `Cc1c(-c2ccnc(N)n2)sc2ccc(C(=O)NC(C)CCc3ccccc3)cc12` (stereo not shown) [Example 418, CC(CCc1ccccc1)NC(═O)c2ccc3sc(c(C)c3c2)-c4ccnc(N)n4], the 50% inhibitory concentration (IC50) was greater than 5 µM.
Turning to `Cc1c(-c2ccnc(N)n2)sc2ccc(C(=O)NCc3ccc(F)c(F)c3)cc12` [Example 413, Cc1c(sc2ccc(cc12)C(═O)NCc3ccc(F)c(F)c3)-c4ccnc(N)n4], the concentration for half-maximal inhibition (IC50) is less than 5 µM.
Under `Cc1c(-c2ccnc(N)n2)sc2ccc(C(=O)NCc3ccc4c(c3)OCO4)cc12` [Example 420, Cc1c(sc2ccc(cc12)C(═O)NCc3ccc4OCOc4c3)-c5ccnc(N)n5] stands less than 5 µM.
The figure for `CCN(CC)C(=O)c1ccc2sc(-c3ccnc(N)n3)c(C)c2c1` [Example 462, CCN(CC)C(═O)c1ccc2sc(c(C)c2c1)-c3ccnc(N)n3] is less than 5 µM; for `Cc1c(-c2ccnc(N)n2)sc2ccc(C(=O)N(C)CC(C)C)cc12` [Example 467, CC(C)CN(C)C(═O)c1ccc2sc(c(C)c2c1)-c3ccnc(N)n3] it is less than 5 µM.
Under `Cc1c(-c2ccnc(N)n2)sc2ccc(C(=O)N3CCN(C(=O)OC(C)(C)C)CC3)cc12` [Example 530, Cc1c(sc2ccc(cc12)C(═O)N3CCN(CC3)C(═O)OC(C)(C)C)-c4ccnc(N)n4] stands greater than 5 µM.
In the case of `COc1ccccc1CNC(=O)c1ccc2sc(-c3ccnc(N)n3)c(C)c2c1` [Example 402, COc1ccccc1CNC(═O)c2ccc3sc(c(C)c3c2)-c4ccnc(N)n4], the IC50 is less than 5 µM.
The figure for `CCCCN(C)C(=O)c1ccc2sc(-c3ccnc(N)n3)c(C)c2c1` [Example 469, CCCCN(C)C(═O)c1ccc2sc(c(C)c2c1)-c3ccnc(N)n3] is less than 5 µM.
For the molecule `Cc1cccc(CNC(=O)c2ccc3sc(-c4ccnc(N)n4)c(C)c3c2)c1` [Example 375, Cc1cccc(CNC(═O)c2ccc3sc(c(C)c3c2)-c4ccnc(N)n4)c1], the concentration for half-maximal inhibition (IC50) was less than 5 µM.
The figure for `CCCN(C)C(=O)c1ccc2sc(-c3ccnc(N)n3)c(C)c2c1` [Example 463, CCCN(C)C(═O)c1ccc2sc(c(C)c2c1)-c3ccnc(N)n3] is less than 5 µM; for `Cc1c(-c2ccnc(N)n2)sc2ccc(C(=O)NCc3cccc(C(F)(F)F)c3)cc12` [Example 445, Cc1c(sc2ccc(cc12)C(═O)NCc3cccc(c3)C(F)(F)F)-c4ccnc(N)n4] it is less than 5 µM.
The figure for `Cc1c(-c2ccnc(N)n2)sc2ccc(C(=O)N(CCN(C)C)Cc3ccccc3)cc12` [Example 524, CN(C)CCN(Cc1ccccc1)C(═O)c2ccc3sc(c(C)c3c2)-c4ccnc(N)n4] is less than 5 µM; for `Cc1c(-c2ccnc(N)n2)sc2ccc(C(=O)NCC3CCCCC3)cc12` [Example 369, Cc1c(sc2ccc(cc12)C(═O)NCC3CCCCC3)-c4ccnc(N)n4] it is less than 5 µM; for `Cc1ccc(S(=O)(=O)NCCNC(=O)c2ccc3sc(-c4ccnc(N)n4)c(C)c3c2)cc1` [Example 458, Cc1ccc(cc1)S(═O)(═O)NCCNC(═O)c2ccc3sc(c(C)c3c2)-c4ccnc(N)n4] it is less than 5 µM.
Take `CCC(C)CNC(=O)c1ccc2sc(-c3ccnc(N)n3)c(C)c2c1` (stereo not shown) [Example 348, CCC(C)CNC(═O)c1ccc2sc(c(C)c2c1)-c3ccnc(N)n3]: the IC50 was less than 5 µM.
Under `Cc1c(-c2ccnc(N)n2)sc2ccc(C(=O)NCCc3ccccc3F)cc12` [Example 406, Cc1c(sc2ccc(cc12)C(═O)NCCc3ccccc3F)-c4ccnc(N)n4] stands less than 5 µM; under `Cc1cccc(N2CCN(C(=O)c3ccc4sc(-c5ccnc(N)n5)c(C)c4c3)CC2)c1C` [Example 534, Cc1cccc(N2CCN(CC2)C(═O)c3ccc4sc(c(C)c4c3)-c5ccnc(N)n5)c1C], greater than 5 µM.
On to `COc1cccc(CNC(=O)c2ccc3sc(-c4ccnc(N)n4)c(C)c3c2)c1` [Example 404, COc1cccc(CNC(═O)c2ccc3sc(c(C)c3c2)-c4ccnc(N)n4)c1], for which the IC50 is less than 5 µM.

Values taken from patent US20080021026A1, “BENZOTHIOPHENE INHIBITORS OF RHO KINASE” (priority 2006, published 2008).
